Measured values reported in US20130040882A1, “USE OF FIBROBLAST GROWTH FACTOR FRAGMENTS” (NOVARTIS AG, priority 2003, published 2013).

Tested on: uterine gene expression
Experiment: Gene expression profiling (HGU133A) in the uterus of ovariectomized monkeys treated with estradiol, tamoxifen or raloxifene
Format: in vivo, cynomolgus monkeys (Macaca fascicularis)

O=C(c1ccc(OCCN2CCCCC2)cc1)c1c(-c2ccc(O)cc2)sc2cc(O)ccc12 [raloxifene]
Uterine expression increase: insulin-like GF binding protein 2 and insulin-like GF 1 (compared with OVX controls): approximately 2 fold | Effect on transporter, redox, and cell cycle genes in the uterus (relative to estradiol) (cynomolgus monkey, in vivo): little or no effect | Uterine expression changes: IGFBP 5, latent TGF beta binding protein 1, cysteine-rich angiogenic inducer 61 (cynomolgus monkey, in vivo): only modest changes | Uterine expression of the remaining signal transduction genes examined (tamoxifen: except for LDL receptor adaptor protein): downregulated | Fold change relative to OVX: ATPase, H+ transporting, lysosomal 38 kda, V0 subunit d isoform 1 (uterus, OVX monkeys): 1.1 fold | Fold change relative to OVX: ATPase, Na+/K+ transporting, beta 3 polypeptide (uterus, OVX monkeys): 0.9 fold | Fold change relative to OVX: Biglycan (uterus, OVX monkeys): 2.4 fold | Fold change relative to OVX: CDC28 protein kinase regulatory subunit 2 (uterus, OVX monkeys): 0.8 fold | Fold change relative to OVX: Cadherin 11, type 2, OB-cadherin (osteoblast) (uterus, OVX monkeys): 1.3 fold | Fold change relative to OVX: Calcium channel, voltage-dependent, beta 2 subunit (uterus, OVX monkeys): 0.8 fold | Fold change relative to OVX: Catenin (cadherin-associated protein), alpha-like 1 (uterus, OVX monkeys): 0.8 fold | Fold change relative to OVX: Chitinase 3-like 1 (cartilage glycoprotein-39) (uterus, OVX monkeys): 1.1 fold | Fold change relative to OVX: Chloride intracellular channel 4 (uterus, OVX monkeys): 1.4 fold | Fold change relative to OVX: Chondroitin sulfate proteoglycan 2 (versican) (uterus, OVX monkeys): 1.4 fold | Fold change relative to OVX: Collagen, type I, alpha 1 (uterus, OVX monkeys): 1.8 fold | Fold change relative to OVX: Collagen, type IV, alpha 2 (uterus, OVX monkeys): 1.4 fold | Fold change relative to OVX: Collagen, type V, alpha 1 (uterus, OVX monkeys): 1.2 fold | Fold change relative to OVX: Collagen, type VI, alpha 3 (uterus, OVX monkeys): 1.2 fold | Fold change relative to OVX: Collagen, type VIII, alpha 2 (uterus, OVX monkeys): 1.9 fold | Fold change relative to OVX: Cyclin D1 (PRAD1: parathyroid adenomatosis 1) (uterus, OVX monkeys): 1.2 fold | Fold change relative to OVX: Cysteine-rich, angiogenic inducer, 61 (uterus, OVX monkeys): 1.7 fold | Fold change relative to OVX: Cytochrome c oxidase subunit via polypeptide 1 (uterus, OVX monkeys): 1.0 fold | Fold change relative to OVX: Cytochrome c oxidase subunit viia polypeptide 2 (liver) (uterus, OVX monkeys): 1.1 fold | Fold change relative to OVX: Dermatopontin (uterus, OVX monkeys): 1.5 fold | Fold change relative to OVX: Dishevelled associated activator of morphogenesis 1 (uterus, OVX monkeys): 0.9 fold | Fold change relative to OVX: Fibroblast growth factor 2 (basic) (uterus, OVX monkeys): 2.0 fold | Fold change relative to OVX: Fibulin 1 (uterus, OVX monkeys): 1.4 fold | Fold change relative to OVX: Four and a half LIM domains 2 (uterus, OVX monkeys): 0.9 fold | Fold change relative to OVX: G1 to S phase transition 1 (uterus, OVX monkeys): 0.9 fold | Fold change relative to OVX: Growth associated protein 43 (uterus, OVX monkeys): 1.7 fold | Fold change relative to OVX: H2A histone family, member Y (uterus, OVX monkeys): 1.0 fold | Fold change relative to OVX: Heparan sulfate proteoglycan 2 (perlecan) (uterus, OVX monkeys): 1.2 fold | Fold change relative to OVX: Histone H2A.F/Z variant (uterus, OVX monkeys): 1.0 fold | Fold change relative to OVX: Insulin-like growth factor binding protein 2, 36 kda (uterus, OVX monkeys): 1.1 fold | Fold change relative to OVX: Insulin-like growth factor binding protein 5 (uterus, OVX monkeys): 2.0 fold | Fold change relative to OVX: Integrin, beta 5 (uterus, OVX monkeys): 1.5 fold | Fold change relative to OVX: Intercrine-alpha, mrna sequence (uterus, OVX monkeys): 1.3 fold | Fold change relative to OVX: LDL receptor adaptor protein (uterus, OVX monkeys): 1.0 fold | Fold change relative to OVX: LIM and senescent cell antigen-like domains 1 (uterus, OVX monkeys): 2.2 fold | Fold change relative to OVX: Laminin, beta 1 (uterus, OVX monkeys): 1.1 fold | Fold change relative to OVX: Latent transforming growth factor beta binding protein 1 (uterus, OVX monkeys): 1.8 fold | Fold change relative to OVX: Matrix metalloproteinase 19 (uterus, OVX monkeys): 0.9 fold | Fold change relative to OVX: Mitogen-activated protein kinase kinase kinase kinase 4 (uterus, OVX monkeys): 0.8 fold | Fold change relative to OVX: Nidogen (enactin) (uterus, OVX monkeys): 2.4 fold | Fold change relative to OVX: Osteoglycin (osteoinductive factor, mimecan) (uterus, OVX monkeys): 1.6 fold | Fold change relative to OVX: Peroxiredoxin 1 (uterus, OVX monkeys): 1.0 fold | Fold change relative to OVX: Phosphatase and tensin homolog (mutated in multiple advanced cancers 1) (uterus, OVX monkeys): 1.1 fold | Fold change relative to OVX: Phospholipid transfer protein (uterus, OVX monkeys): 1.2 fold | Fold change relative to OVX: Pituitary tumour-transforming 1 interacting protein (uterus, OVX monkeys): 1.5 fold | Fold change relative to OVX: Procollagen C-endopeptidase enhancer (uterus, OVX monkeys): 1.7 fold | Fold change relative to OVX: Procollagen-proline, 2-oxoglutarate 4-dioxygenase (proline 4-hydroxylase), alpha polypeptide II (uterus, OVX monkeys): 1.2 fold | Fold change relative to OVX: Progesterone receptor (uterus, OVX monkeys): 1.9 fold | Fold change relative to OVX: Protein tyrosine kinase 9 (uterus, OVX monkeys): 1.2 fold | Fold change relative to OVX: SET domain, bifurcated 1 (uterus, OVX monkeys): 1.1 fold | Fold change relative to OVX: SPARC-like 1 (mast9, hevin) (uterus, OVX monkeys): 1.7 fold | Fold change relative to OVX: Secreted frizzled-related protein 1 (uterus, OVX monkeys): 1.6 fold | Fold change relative to OVX: Secreted frizzled-related protein 4 (uterus, OVX monkeys): 0.8 fold | Fold change relative to OVX: Secreted protein, acidic, cysteine-rich (osteonectin) (uterus, OVX monkeys): 1.7 fold | Fold change relative to OVX: Serine (or cysteine) proteinase inhibitor, clade H (heat shock protein 47), member 1, (collagen binding protein 1) (uterus, OVX monkeys): 1.4 fold | Fold change relative to OVX: Solute carrier family 22 (organic cation transporter), member 1-like (uterus, OVX monkeys): 1.0 fold | Fold change relative to OVX: Solute carrier family 25 (mitochondrial carrier; adenine nucleotide translocator), member 5 (uterus, OVX monkeys): 1.1 fold | Fold change relative to OVX: Stem cell growth factor; lymphocyte secreted C-type lectin (uterus, OVX monkeys): 1.2 fold | Fold change relative to OVX: Tenascin C (hexabrachion) (uterus, OVX monkeys): 1.0 fold | Fold change relative to OVX: Testis Enhanced Gene Transcript (Bax Inhibitor 1) (uterus, OVX monkeys): 1.1 fold | Fold change relative to OVX: Thioredoxin interacting protein (uterus, OVX monkeys): 1.0 fold | Fold change relative to OVX: Transforming growth factor, beta-induced, 68 kda (uterus, OVX monkeys): 1.7 fold | Fold change relative to OVX: Ubiquinol-cytochrome c reductase, Rieske iron-sulfur polypeptide 1 (uterus, OVX monkeys): 1.0 fold | Fold change relative to OVX: Wingless-type MMTV integration site family, member 2B (uterus, OVX monkeys): 1.4 fold | Fold change relative to OVX: Wingless-type MMTV integration site family, member 16 (uterus, OVX monkeys): 0.9 fold | Fold change relative to SHAM control: ATPase, H+ transporting, lysosomal 38 kda, V0 subunit d isoform 1 (uterus, OVX monkeys): 1.0 fold | Fold change relative to SHAM control: ATPase, Na+/K+ transporting, beta 3 polypeptide (uterus, OVX monkeys): 0.5 fold | Fold change relative to SHAM control: Biglycan (uterus, OVX monkeys): 0.9 fold | Fold change relative to SHAM control: CDC28 protein kinase regulatory subunit 2 (uterus, OVX monkeys): 0.5 fold | Fold change relative to SHAM control: Chitinase 3-like 1 (cartilage glycoprotein-39) (uterus, OVX monkeys): 0.8 fold | Fold change relative to SHAM control: Chloride intracellular channel 4 (uterus, OVX monkeys): 0.7 fold | Fold change relative to SHAM control: Chondroitin sulfate proteoglycan 2 (versican) (uterus, OVX monkeys): 1.0 fold | Fold change relative to SHAM control: Collagen, type I, alpha 1 (uterus, OVX monkeys): 0.7 fold | Fold change relative to SHAM control: Collagen, type IV, alpha 2 (uterus, OVX monkeys): 0.8 fold | Fold change relative to SHAM control: Collagen, type V, alpha 1 (uterus, OVX monkeys): 0.6 fold | Fold change relative to SHAM control: Collagen, type VI, alpha 3 (uterus, OVX monkeys): 0.7 fold | Fold change relative to SHAM control: Collagen, type VIII, alpha 2 (uterus, OVX monkeys): 1.1 fold | Fold change relative to SHAM control: Cyclin D1 (PRAD1: parathyroid adenomatosis 1) (uterus, OVX monkeys): 1.3 fold | Fold change relative to SHAM control: Cysteine-rich, angiogenic inducer, 61 (uterus, OVX monkeys): 0.9 fold | Fold change relative to SHAM control: Cytochrome c oxidase subunit via polypeptide 1 (uterus, OVX monkeys): 0.8 fold | Fold change relative to SHAM control: Cytochrome c oxidase subunit viia polypeptide 2 (liver) (uterus, OVX monkeys): 1.1 fold | Fold change relative to SHAM control: Dermatopontin (uterus, OVX monkeys): 0.8 fold | Fold change relative to SHAM control: Fibroblast growth factor 2 (basic) (uterus, OVX monkeys): 1.0 fold
